Experimental data taken from PubChem BioAssay AID328 (DTP/NCI, 2004).
“And” between values parts separate entries of the source, which are not always exact repeats. Equal values may be shown once. Toxic doses and inconclusive results are not listed.

Tested on: BDF1 mice, P388 leukemia ip, median survival T/C
Test: NCI In Vivo Anticancer Drug Screen. Data for tumor model P388 Leukemia (intraperitoneal) in B6D2F1 (BDF1) mice
Details: endpoint: median survival time, higher = longer survival
Method in brief: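 Compound-treated tumour-bearing mice were compared with vehicle-treated controls. Survival was recorded, and the value is the treated-group measurement divided by the control-group measurement (T/C).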

[1] = dose: 100.0 mg/kg/injection, schedule: Q01DX001 (ip), vehicle: Klucel (hydroxypropylcellulose) (HPC)
[2] = dose: 100.0 mg/kg/injection, schedule: Q01DX009 (ip), vehicle: saline with Tween-80
[3] = dose: 200.0 mg/kg/injection, schedule: Q01DX009 (ip), vehicle: saline with Tween-80
[4] = dose: 400.0 mg/kg/injection, schedule: Q01DX009 (ip), vehicle: saline with Tween-80
[5] = dose: 100.0 mg/kg/injection, schedule: Q01DX009 (ip), vehicle: Klucel (hydroxypropylcellulose) (HPC)
[6] = dose: 200.0 mg/kg/injection, schedule: Q01DX009 (ip), vehicle: Klucel (hydroxypropylcellulose) (HPC)
[7] = dose: 100.0 mg/kg/injection, schedule: Q01DX009 (ip), vehicle: saline
[8] = dose: 150.0 mg/kg/injection, schedule: Q01DX009 (ip), vehicle: saline with Tween-80
[9] = dose: 200.0 mg/kg/injection, schedule: Q01DX009 (ip), vehicle: saline
[10] = dose: 100.0 mg/kg/injection, schedule: Q04DX003 (ip), vehicle: Klucel (hydroxypropylcellulose) (HPC)
[11] = dose: 100.0 mg/kg/injection, schedule: Q04DX003 (ip), vehicle: saline with Tween-80
[12] = dose: 200.0 mg/kg/injection, schedule: Q04DX003 (ip), vehicle: saline with Tween-80
[13] = dose: 100.0 mg/kg/injection, schedule: Q04DX003 (ip), vehicle: saline
[14] = dose: 200.0 mg/kg/injection, schedule: Q04DX003 (ip), vehicle: saline
[15] = dose: 400.0 mg/kg/injection, schedule: Q04DX003 (ip), vehicle: saline
[16] = dose: 100.0 mg/kg/injection, schedule: Q01DX001 (ip), vehicle: saline
[17] = dose: 200.0 mg/kg/injection, schedule: Q01DX001 (ip), vehicle: saline
[18] = dose: 400.0 mg/kg/injection, schedule: Q01DX001 (ip), vehicle: saline

COc1cc2c(cc1OC)[C@H]1CNC[C@H]1[C@@H](c1ccccc1)C2
T/C (dose: 95.0 mg/kg/injection, schedule: Q01DX001 (ip), vehicle: Klucel (hydroxypropylcellulose) (HPC)): 100 % of control
T/C [1]: 100 % of control and 110 % of control
T/C (dose: 135.0 mg/kg/injection, schedule: Q01DX001 (ip), vehicle: Klucel (hydroxypropylcellulose) (HPC)): 104 % of control
T/C (dose: 200.0 mg/kg/injection, schedule: Q01DX001 (ip), vehicle: Klucel (hydroxypropylcellulose) (HPC)): 95 % of control and 104 % of control
T/C (dose: 300.0 mg/kg/injection, schedule: Q01DX001 (ip), vehicle: Klucel (hydroxypropylcellulose) (HPC)): 90 % of control

Cc1nc2nccnc2[nH]1
T/C [2]: 91 % of control
T/C [3]: 91 % of control
T/C [4]: 100 % of control

COc1ccccc1NC(=O)CSC(N)=O
T/C [5]: 110 % of control
T/C [6]: 120 % of control
T/C (dose: 264.0 mg/kg/injection, schedule: Q01DX009 (ip), vehicle: Klucel (hydroxypropylcellulose) (HPC)): 113 % of control and 120 % of control

CC1(C)N=C(N)N=C(N)N1c1ccc(OCCOc2ccc(NC(=O)CBr)cc2)cc1
T/C (dose: 2.5 mg/kg/injection, schedule: Q01DX009 (ip), vehicle: saline with Tween-80): 95 % of control
T/C (dose: 5.0 mg/kg/injection, schedule: Q01DX009 (ip), vehicle: saline with Tween-80): 112 % of control
T/C [2]: 172 % of control
T/C [7]: 230 % of control
T/C (dose: 100.0 mg/kg/injection, schedule: Q04DX003 (ip), vehicle: saline sonified): 165 % of control and 170 % of control
T/C [8]: 218 % of control
T/C (dose: 150.0 mg/kg/injection, schedule: Q04DX003 (ip), vehicle: saline sonified): 165 % of control
T/C [9]: 90 % of control
T/C (dose: 200.0 mg/kg/injection, schedule: Q04DX003 (ip), vehicle: saline sonified): 200 % of control
T/C (dose: 400.0 mg/kg/injection, schedule: Q04DX003 (ip), vehicle: saline sonified): 245 % of control

CC(=O)N(N=Nc1ccccc1)c1cccc2ccccc12
T/C (dose: 25.0 mg/kg/injection, schedule: Q01DX009 (ip), vehicle: Klucel (hydroxypropylcellulose) (HPC)): 109 % of control and 113 % of control
T/C (dose: 35.0 mg/kg/injection, schedule: Q01DX009 (ip), vehicle: Klucel (hydroxypropylcellulose) (HPC)): 103 % of control
T/C (dose: 50.0 mg/kg/injection, schedule: Q01DX009 (ip), vehicle: Klucel (hydroxypropylcellulose) (HPC)): 107 % of control
T/C (dose: 50.0 mg/kg/injection, schedule: Q04DX003 (ip), vehicle: Klucel (hydroxypropylcellulose) (HPC)): 100 % of control
T/C [10]: 110 % of control

Cc1ccc(CNc2cc(C)ccn2)cc1
T/C (dose: 50.0 mg/kg/injection, schedule: Q04DX003 (ip), vehicle: saline with Tween-80): 105 % of control
T/C [11]: 110 % of control
T/C [12]: 110 % of control

O=C(Nc1ccc(S(=O)(=O)Nc2ccc(N=Nc3ccccc3)cc2)cc1)C(SC1=NC=NC2=NC=NC21)SC1=NC=NC2=NC=NC21 (configuration not stated)
T/C [13]: 95 % of control
T/C [14]: 105 % of control
T/C [15]: 115 % of control

O=c1[nH]cc(CCc2ccccc2)c(=O)[nH]1
T/C [1]: 105 % of control
T/C [5]: 100 % of control
T/C [10]: 104 % of control
T/C [6]: 88 % of control
T/C (dose: 200.0 mg/kg/injection, schedule: Q04DX003 (ip), vehicle: Klucel (hydroxypropylcellulose) (HPC)): 100 % of control
T/C (dose: 400.0 mg/kg/injection, schedule: Q01DX001 (ip), vehicle: Klucel (hydroxypropylcellulose) (HPC)): 105 % of control
T/C (dose: 400.0 mg/kg/injection, schedule: Q01DX009 (ip), vehicle: Klucel (hydroxypropylcellulose) (HPC)): 92 % of control

Nc1nc2c(c(=O)[nH]1)N(C=O)C(CNc1ccc(C(=O)N[C@@H](CCC(=O)O)C(=O)O)cc1)CN2 (some centres not stated)
T/C [2]: 95 % of control
T/C [13]: 104 % of control
T/C [3]: 95 % of control
T/C [14]: 104 % of control
T/C [4]: 95 % of control
T/C [15]: 100 % of control

C=CN1CCCC1=O
T/C [16]: 100 % of control
T/C [7]: 90 % of control
T/C [17]: 95 % of control
T/C [9]: 118 % of control
T/C [18]: 100 % of control
T/C (dose: 400.0 mg/kg/injection, schedule: Q01DX009 (ip), vehicle: saline): 122 % of control

CC(=O)OC(c1nc2ccccc2c(=O)n1C1CC2(OC1=O)c1ccccc1N1C(=O)C(C)N(O)C12)C(C)C (configuration not stated)
T/C (dose: 4.0 mg/kg/injection, schedule: Q01DX009 (ip), vehicle: Klucel (hydroxypropylcellulose) (HPC)): 93 % of control
T/C (dose: 8.0 mg/kg/injection, schedule: Q01DX009 (ip), vehicle: Klucel (hydroxypropylcellulose) (HPC)): 101 % of control
T/C (dose: 16.0 mg/kg/injection, schedule: Q01DX009 (ip), vehicle: Klucel (hydroxypropylcellulose) (HPC)): 110 % of control
T/C (dose: 32.0 mg/kg/injection, schedule: Q01DX009 (ip), vehicle: Klucel (hydroxypropylcellulose) (HPC)): 100 % of control

c1ccc(CCN2COc3c(ccc4cccnc34)C2)cc1
T/C [11]: 95 % of control

CCOC(=O)C(N)Cc1ccc(N(CCCl)CCCl)cc1 (configuration not stated)
T/C (dose: 4.0 mg/kg/injection, schedule: Q04DX003 (ip), vehicle: saline with Tween-80): 240 % of control and 245 % of control
T/C (dose: 6.0 mg/kg/injection, schedule: Q04DX003 (ip), vehicle: saline with Tween-80): 272 % of control
T/C (dose: 9.0 mg/kg/injection, schedule: Q04DX003 (ip), vehicle: saline with Tween-80): 272 % of control and 95 % of control

Cc1c(C)c([N+](=O)[O-])c(Br)c(C)c1[N+](=O)[O-]
T/C [2]: 95 % of control
T/C [11]: 104 % of control
T/C (dose: 132.0 mg/kg/injection, schedule: Q04DX003 (ip), vehicle: saline with Tween-80): 109 % of control
T/C [3]: 90 % of control
T/C [12]: 118 % of control
T/C (dose: 300.0 mg/kg/injection, schedule: Q04DX003 (ip), vehicle: saline with Tween-80): 100 % of control
T/C [4]: 95 % of control
T/C (dose: 400.0 mg/kg/injection, schedule: Q04DX003 (ip), vehicle: saline with Tween-80): 122 % of control

COc1ccc2c(c1)CCC1CC(=O)C=C21 (configuration not stated)
T/C [16]: 105 % of control
T/C [17]: 90 % of control
T/C [18]: 100 % of control

CCOC(=O)c1ccc(OP(=O)(N(C)C)N(C)C)cc1
T/C (dose: 12.5 mg/kg/injection, schedule: Q01DX009 (ip), vehicle: saline with Tween-80): 101 % of control
T/C (dose: 25.0 mg/kg/injection, schedule: Q01DX009 (ip), vehicle: saline with Tween-80): 110 % of control
T/C (dose: 50.0 mg/kg/injection, schedule: Q01DX009 (ip), vehicle: saline with Tween-80): 100 % of control and 119 % of control

COCc1cnc2nc(N)nc(N)c2n1
T/C (dose: 3.13 mg/kg/injection, schedule: Q01DX009 (ip), vehicle: other): 116 % of control

Cc1ccn(C(=O)CC#N)n1
T/C (dose: 75.0 mg/kg/injection, schedule: Q01DX009 (ip), vehicle: saline with Tween-80): 91 % of control
T/C [8]: 97 % of control
T/C (dose: 300.0 mg/kg/injection, schedule: Q01DX009 (ip), vehicle: saline with Tween-80): 92 % of control
